*1 amine or outer side, *2 acyl side, *3 side chain or, on linkers, in order; H or OH if unused. Where a SMILES comes first, the peptide text is derived from it. Bridges are numbered along the chain shown (N, C = ends). Roman numbers before positions name the chains, in order. Side-chain parts run from the residue outwards. [ ]: non-standard residue; d: D form. The star is where a group is joined. ξ: configuration not given here. X1 = CC(C)(C)C(=O)CN1C(=O)[C@H](N*)CN(C2CCCCC2)c2ccccc21; DOTA = O=C(O)CN1CCN(CC(=O)O)CCN(CC(=O)*)CCN(CC(=O)O)CC1; γGlu = O=C(O)[C@H](CCC(=O)[*:2])N[*:1]; X2 = CC(=O)[C@H](Cc1ccc(O)cc1)N*; X3 = CC(=O)[C@@H](N*)[C@@H](C)O; 3Abz = Nc1cccc(C(=O)O)c1; ξF = NC(Cc1ccccc1)C(=O)O; ξE = NC(CCC(=O)O)C(=O)O; AEEA = NCCOCCOCC(=O)O; CO = O=C([*:1])[*:2]
How the values were obtained:
CCK2R [1] = target: T1, CCK2R (Homo sapiens, UniProt P32239); assay: Competitive binding (FACS) on CCK2R-transfected HEK 293T cells with Cy5-labeled Z360; settings: HEK 293T transfected, Cy5-labeled Z360 competitive ligand (Table 3)
T1 construct: expressed in transfected cells; host or cells: HEK 293T cells
T1 sequence (P32239 1-447): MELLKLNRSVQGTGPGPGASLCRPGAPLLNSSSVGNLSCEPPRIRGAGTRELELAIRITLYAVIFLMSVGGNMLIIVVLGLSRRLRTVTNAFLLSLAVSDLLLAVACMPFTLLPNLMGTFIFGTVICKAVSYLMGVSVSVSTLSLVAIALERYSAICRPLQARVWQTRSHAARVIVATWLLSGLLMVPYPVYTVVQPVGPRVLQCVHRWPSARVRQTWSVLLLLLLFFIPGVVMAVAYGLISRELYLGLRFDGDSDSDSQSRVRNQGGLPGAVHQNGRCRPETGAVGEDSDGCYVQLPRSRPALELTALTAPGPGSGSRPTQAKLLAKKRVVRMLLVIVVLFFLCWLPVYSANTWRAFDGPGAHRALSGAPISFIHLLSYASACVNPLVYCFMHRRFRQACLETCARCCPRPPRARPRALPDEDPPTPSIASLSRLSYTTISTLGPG
Protocol: (§1) Binding Affinity Tested by Using Cy5-Labled Competitive Ligands.
(§2) HEK 293T cells were transfected with SSTR2 or CCK2R-expressing plasmid by Lipofectamine 2000 reagent. 24 hours after transfection, cells were harvested and suspended with assay buffer (1% OVA in DMEM). […] The testing compound was further supplemented into the wells at different concentrations. After incubation for 1 hour at dark, cells were washed and suspended in FACS buffer (1% OVA in DPBS). The fluorescent signal was detected by FACS machine and the binding affinity of the testing compound was evaluated by calculation of IC50 for competitive binding of reference compound.

in vivo = settings: BALB/c nude, mouse, in vivo, iv, total radioactivity
Outline: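 Compounds labelled with ^177Lu in 0.5 M NaOAc pH 4.5 at 95° C for 15 min, then used directly or diluted in PBS with 3 mg/mL ascorbate. BALB/c nude mice bore subcutaneous AR42J flank xenografts (0.05-0.50 g). Organs excised at 4, 24 and 72 h post-injection and γ-counted for % ID and % ID/g.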

CCK2R [2] = target: T2, CCK2R (Rattus norvegicus, UniProt P30553); assay: Competitive cell-binding assay on AR42J cells with 125I-C3 as competitive ligand; settings: AR42J cells, 125I-C3 competitive ligand, 37° C. 1 h; read-out: CCK2R/IC50
T2 construct: host or cells: AR42J cells
T2 sequence (P30553 1-452): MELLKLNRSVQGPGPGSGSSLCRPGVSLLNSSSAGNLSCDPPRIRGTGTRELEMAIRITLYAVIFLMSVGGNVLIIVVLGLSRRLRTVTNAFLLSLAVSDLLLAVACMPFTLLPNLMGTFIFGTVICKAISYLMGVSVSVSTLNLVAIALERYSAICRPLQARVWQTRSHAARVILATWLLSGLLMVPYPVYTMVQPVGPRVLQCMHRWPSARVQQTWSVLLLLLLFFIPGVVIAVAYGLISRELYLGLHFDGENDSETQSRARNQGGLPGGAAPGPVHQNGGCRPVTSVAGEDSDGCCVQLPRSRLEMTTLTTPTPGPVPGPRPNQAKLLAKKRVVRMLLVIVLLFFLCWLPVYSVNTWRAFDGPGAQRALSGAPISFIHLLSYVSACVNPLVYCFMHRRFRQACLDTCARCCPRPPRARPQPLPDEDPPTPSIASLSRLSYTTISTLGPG
Outline: (§3)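 Rat AR42J cells (1~3×10^6 cells/mL) in RPMI-1640 with 0.25% BSA incubated with 125I-C1 or 125I-C3 (0.02 μCi/well) plus test compound (0-10000 nM) for 1 h at 37° C., n=3. Unbound ligand removed by filtration; bound radioactivity γ-counted; IC50 by nonlinear regression.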

SSTR2 [3] = target: T3, SSTR2 (Rattus norvegicus, UniProt P30680); assay: Competitive cell-binding assay on AR42J cells with 125I-C1 as competitive ligand; settings: AR42J cells, 125I-C1 competitive ligand, 37° C. 1 h; read-out: SSTR2/IC50
T3 construct: host or cells: AR42J cells
T3 sequence (P30680 whole entry): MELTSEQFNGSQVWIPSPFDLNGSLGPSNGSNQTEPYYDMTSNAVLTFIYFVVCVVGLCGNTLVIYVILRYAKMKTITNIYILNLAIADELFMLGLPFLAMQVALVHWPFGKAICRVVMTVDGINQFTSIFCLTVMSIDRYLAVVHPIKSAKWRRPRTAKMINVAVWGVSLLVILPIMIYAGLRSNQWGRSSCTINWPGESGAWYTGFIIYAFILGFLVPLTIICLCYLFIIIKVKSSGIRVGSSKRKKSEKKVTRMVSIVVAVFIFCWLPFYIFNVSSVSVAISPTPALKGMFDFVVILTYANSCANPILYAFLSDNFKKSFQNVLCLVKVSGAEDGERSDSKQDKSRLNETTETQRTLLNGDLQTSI
Outline: as §3

SSTR2 [4] = target: T4, SSTR2 (Homo sapiens, UniProt P30874); assay: Competitive binding (FACS) on SSTR2-transfected HEK 293T cells with Cy5-labled DOTA-TATE; settings: HEK 293T transfected, Cy5-labled DOTA-TATE competitive ligand (Table 4)
T4 construct: expressed in transfected cells; host or cells: HEK 293T cells
T4 sequence (P30874 whole entry, species assumed): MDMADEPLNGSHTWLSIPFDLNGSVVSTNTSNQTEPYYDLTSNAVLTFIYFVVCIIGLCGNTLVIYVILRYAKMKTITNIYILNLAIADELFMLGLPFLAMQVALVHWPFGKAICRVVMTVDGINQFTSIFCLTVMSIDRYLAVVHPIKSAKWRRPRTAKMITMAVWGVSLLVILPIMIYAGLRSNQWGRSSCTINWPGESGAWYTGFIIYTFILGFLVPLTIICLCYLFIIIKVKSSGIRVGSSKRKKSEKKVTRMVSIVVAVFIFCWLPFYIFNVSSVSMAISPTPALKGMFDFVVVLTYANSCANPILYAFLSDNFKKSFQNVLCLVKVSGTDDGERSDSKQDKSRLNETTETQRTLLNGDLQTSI
Protocol: as §1, §2

CCK2R [5] = target: T1, CCK2R; assay: Competitive binding (FACS) on CCK2R-transfected HEK 293T cells with Cy5-labeled F11N derivative; settings: HEK 293T transfected, Cy5-labeled F11N derivative competitive ligand (Table 4); read-out: CCK2R IC50

CC(O)[C@H](NC(=O)[C@@H]1CSSC[C@H](NC(=O)[C@@H](Cc2ccccc2)NC(=O)COCCOCCNC(=O)[C@H](CCCCNC(=O)CCC(NC(=O)CNC(=O)c2cccc(NC(=O)N[C@@H]3CN(C4CCCCC4)c4ccccc4N(CC(=O)C(C)(C)C)C3=O)c2)C(=O)O)NC(=O)COCCOCCNC(=O)COCCOCCNC(=O)CC[C@H](NC(=O)CN2CCN(CC(=O)O)CCN(CC(=O)O)CCN(CC(=O)O)CC2)C(=O)O)C(=O)N[C@@H](Cc2ccc(O)cc2)C(=O)N[C@H](Cc2c[nH]c3ccccc23)C(=O)N[C@@H](CCCCN)C(=O)N[C@@H]([C@@H](C)O)C(=O)N1)C(=O)O (stereo in doubt) [Compound I-21, DOTA-gE-OEG-OEG-K(-gE-G-Z360)-OEG-f[CYwKTC]T-OH]
IC50 (CCK2R [1]): 7.13 nM

C[C@@H](O)[C@H](NC(=O)[C@@H]1CSSC[C@H](NC(=O)[C@@H](Cc2ccccc2)NC(=O)COCCOCCNC(=O)[C@H](CCCCNC(=O)CC[C@H](NC(=O)CNC(=O)c2cccc(NC(=O)N[C@@H]3CN(C4CCCCC4)c4ccccc4N(CC(=O)C(C)(C)C)C3=O)c2)C(=O)O)NC(=O)CN2CCN(CC(=O)O)CCN(CC(=O)O)CCN(CC(=O)O)CC2)C(=O)N[C@@H](Cc2ccc(O)cc2)C(=O)N[C@H](Cc2c[nH]c3ccccc23)C(=O)N[C@@H](CCCCN)C(=O)N[C@@H]([C@@H](C)O)C(=O)N1)C(=O)O [Compound I-1, DOTA-K(-gE-G-Z360)-OEG-f[CYwKTC]T-OH]
IC50 (CCK2R [1]): 7.32 nM
tissue uptake at 24 h (in vivo; uptake Kidney): 14 %ID/g
tissue uptake at 24 h (in vivo; uptake Liver): 2.86 %ID/g
tissue uptake at 24 h (in vivo; uptake Pancreas): 1.6 %ID/g
tissue uptake at 24 h (in vivo; uptake Spleen): 1.6 %ID/g
tissue uptake at 24 h (in vivo; uptake Stomach): 2.53 %ID/g
tissue uptake at 24 h (in vivo; uptake Tumor): 17.1 %ID/g

C[C@@H](O)[C@H](NC(=O)[C@@H]1CSSC[C@H](NC(=O)[C@@H](Cc2ccccc2)NC(=O)[C@H](CCCCNC(=O)[C@H](CCC(=O)O)NC(=O)c2cccc(NC(=O)N[C@@H]3CN(C4CCCCC4)c4ccccc4N(CC(=O)C(C)(C)C)C3=O)c2)NC(=O)CN2CCN(CC(=O)O)CCN(CC(=O)O)CCN(CC(=O)O)CC2)C(=O)N[C@@H](Cc2ccc(O)cc2)C(=O)N[C@H](Cc2c[nH]c3ccccc23)C(=O)N[C@@H](CCCCN)C(=O)N[C@@H]([C@@H](C)O)C(=O)N1)C(=O)O [Compound I-25, DOTA-K(-E-Z360)-f[CYwKTC]T-OH]
IC50 (CCK2R [1]): 1.36 nM

C[C@@H](O)[C@H](NC(=O)[C@@H]1CSSC[C@H](NC(=O)[C@@H](Cc2ccccc2)NC(=O)[C@H](CCCCNC(=O)CC[C@H](NC(=O)CNC(=O)c2cccc(NC(=O)N[C@@H]3CN(C4CCCCC4)c4ccccc4N(CC(=O)C(C)(C)C)C3=O)c2)C(=O)O)NC(=O)CN2CCN(CC(=O)O)CCN(CC(=O)O)CCN(CC(=O)O)CC2)C(=O)N[C@@H](Cc2ccc(O)cc2)C(=O)N[C@H](Cc2c[nH]c3ccccc23)C(=O)N[C@@H](CCCCN)C(=O)N[C@@H]([C@@H](C)O)C(=O)N1)C(=O)O [Compound I-26, DOTA-K(-gE-G-Z360)-f[CYwKTC]T-OH]
IC50 (CCK2R [1]): 2.67 nM

C[C@@H](O)[C@H](NC(=O)[C@@H]1CSSC[C@H](NC(=O)[C@@H](Cc2ccccc2)NC(=O)[C@H](CCCCNC(=O)COCCOCCNC(=O)[C@H](CCC(=O)O)NC(=O)c2cccc(NC(=O)N[C@@H]3CN(C4CCCCC4)c4ccccc4N(CC(=O)C(C)(C)C)C3=O)c2)NC(=O)CN2CCN(CC(=O)O)CCN(CC(=O)O)CCN(CC(=O)O)CC2)C(=O)N[C@@H](Cc2ccc(O)cc2)C(=O)N[C@H](Cc2c[nH]c3ccccc23)C(=O)N[C@@H](CCCCN)C(=O)N[C@@H]([C@@H](C)O)C(=O)N1)C(=O)O [Compound I-28, DOTA-K(-OEG-E-Z360)-f[CYwKTC]T-OH]
IC50 (CCK2R [1]): 4.84 nM

C[C@@H](O)[C@H](NC(=O)[C@@H]1CSSC[C@H](NC(=O)[C@@H](Cc2ccccc2)NC(=O)[C@H](CCCCNC(=O)COCCOCCNC(=O)COCCOCCNC(=O)[C@H](CCC(=O)O)NC(=O)c2cccc(NC(=O)N[C@@H]3CN(C4CCCCC4)c4ccccc4N(CC(=O)C(C)(C)C)C3=O)c2)NC(=O)CN2CCN(CC(=O)O)CCN(CC(=O)O)CCN(CC(=O)O)CC2)C(=O)N[C@@H](Cc2ccc(O)cc2)C(=O)N[C@H](Cc2c[nH]c3ccccc23)C(=O)N[C@@H](CCCCN)C(=O)N[C@@H]([C@@H](C)O)C(=O)N1)C(=O)O [Compound I-29, DOTA-K(-OEG-OEG-E-Z360)-f[CYwKTC]T-OH]
IC50 (CCK2R [1]): 0.46 nM

C[C@@H](O)[C@H](NC(=O)[C@@H]1CSSC[C@H](NC(=O)[C@@H](Cc2ccccc2)NC(=O)COCCOCCNC(=O)[C@H](CCCCNC(=O)COCCOCCNC(=O)[C@H](CCC(=O)O)NC(=O)c2cccc(NC(=O)N[C@@H]3CN(C4CCCCC4)c4ccccc4N(CC(=O)C(C)(C)C)C3=O)c2)NC(=O)CN2CCN(CC(=O)O)CCN(CC(=O)O)CCN(CC(=O)O)CC2)C(=O)N[C@@H](Cc2ccc(O)cc2)C(=O)N[C@H](Cc2c[nH]c3ccccc23)C(=O)N[C@@H](CCCCN)C(=O)N[C@@H]([C@@H](C)O)C(=O)N1)C(=O)O [Compound I-30, DOTA-K(-OEG-E-Z360)-OEG-f[CYwKTC]T-OH]
IC50 (CCK2R [1]): 1.28 nM

C[C@@H](O)[C@H](NC(=O)[C@@H]1CSSC[C@H](NC(=O)[C@@H](Cc2ccccc2)NC(=O)COCCOCCNC(=O)[C@H](CCCCNC(=O)c2cccc(NC(=O)N[C@@H]3CN(C4CCCCC4)c4ccccc4N(CC(=O)C(C)(C)C)C3=O)c2)NC(=O)CN2CCN(CC(=O)O)CCN(CC(=O)O)CCN(CC(=O)O)CC2)C(=O)N[C@@H](Cc2ccc(O)cc2)C(=O)N[C@H](Cc2c[nH]c3ccccc23)C(=O)N[C@@H](CCCCN)C(=O)N[C@@H]([C@@H](C)O)C(=O)N1)C(=O)O [Compound I-37, DOTA-K(Z360)-OEG-f[CYwKTC]T-OH]
IC50 (CCK2R [2]): 4.2 nM
IC50 (CCK2R [1]): 10.7 nM
IC50 (SSTR2 [3]): 3.01 nM
tissue uptake at 24 h (in vivo; uptake Kidney): 7.79 %ID/g
tissue uptake at 24 h (in vivo; uptake Liver): 2.4 %ID/g
tissue uptake at 24 h (in vivo; uptake Pancreas): 0.68 %ID/g
tissue uptake at 24 h (in vivo; uptake Spleen): 0.2 %ID/g
tissue uptake at 24 h (in vivo; uptake Stomach): 2.58 %ID/g
tissue uptake at 24 h (in vivo; uptake Tumor): 23.1 %ID/g

CC(=O)[C@H](Cc1ccc(O)cc1)NC(=O)[C@H](CSSC[C@H](NC(=O)[C@@H](NC(=O)[C@H](CCCCN)NC(=O)[C@H](N)Cc1c[nH]c2ccccc12)[C@@H](C)O)C(=O)N[C@H](C(C)=O)[C@@H](C)O)NC(=O)C(Cc1ccccc1)NC(=O)COCCOCCNC(=O)COCCOCCNC(=O)CC[C@H](NC(=O)C(CCC(=O)O)NC(=O)[C@H](CCCCNC(=O)c1cccc(NC(=O)N[C@@H]2CN(C3CCCCC3)c3ccccc3N(CC(=O)C(C)(C)C)C2=O)c1)NC(=O)CN1CCN(CC(=O)O)CCN(CC(=O)O)CCN(CC(=O)O)CC1)C(=O)O (stereo partly drawn) [Compound I-75, DOTA-K(Z360)-Glu-gGlu-OEG-OEG-f[CYwKTC]T-OH] (I: {DOTA}-K([3Abz-CO-X1])[ξE][γGlu][AEEA][AEEA][ξF]C-X2 / II: H-[dW]KTC-X3; disulfide I:7-II:4)
IC50 (SSTR2 [4]): 9.36 nM
IC50 (CCK2R [5]): 126 nM

Source: US20260248972A1, “DUAL RECEPTOR TARGETING RADIOLIGANDS AND USES THEREOF RELATED APPLICATIONS” (priority 2022, published 2026)
